Assays:
GPR17 [1] = molecular target: T1, GPR17 (Homo sapiens, UniProt Q13304); assay: Calcium mobilization functional assay (GPR17 Ca2+ assay); assay type: cell-based; parameters: host or cells: Flp-In T-REx CHO; details: CHO hGPR17 cells, inhibition of 50 nM MDL29,951, Calcium 5 dye, FLIPR; read-out: Ca2+ assay pIC50 (converted)
Procedure, shortened: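 Flp-In T-REx CHO cells stably expressing human GPR17, doxycycline-induced (1 μg/mL, 16-20 h), loaded 60 min with Calcium 5 dye. Inhibition by varying test-compound concentrations of the 50 nM MDL29,951 agonist response was read by fluorescence over time at room temperature. pIC50 came from 4-parameter logistic fitting.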

GPR17 [2] = molecular target: T1, GPR17; assay: cAMP accumulation functional assay (HTRF, Schild analysis); assay type: cell-based; parameters: host or cells: Flp-In T-REx CHO; details: CHO hGPR17 cells, Schild analysis vs MDL29,951, 5 μM forskolin, read-out: cAMP assay pA2 (converted)
Procedure, shortened: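 CHO Flp-In T-REx cells with doxycycline-induced human GPR17 were preincubated 30 min at room temperature in HBSS-HEPES pH 7.4 with antagonist. cAMP was then measured by HTRF after 60 min. MDL29,951 pEC50 shifts gave dose ratios, and Schild analysis gave pA2.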

T1 sequence (Q13304 whole entry): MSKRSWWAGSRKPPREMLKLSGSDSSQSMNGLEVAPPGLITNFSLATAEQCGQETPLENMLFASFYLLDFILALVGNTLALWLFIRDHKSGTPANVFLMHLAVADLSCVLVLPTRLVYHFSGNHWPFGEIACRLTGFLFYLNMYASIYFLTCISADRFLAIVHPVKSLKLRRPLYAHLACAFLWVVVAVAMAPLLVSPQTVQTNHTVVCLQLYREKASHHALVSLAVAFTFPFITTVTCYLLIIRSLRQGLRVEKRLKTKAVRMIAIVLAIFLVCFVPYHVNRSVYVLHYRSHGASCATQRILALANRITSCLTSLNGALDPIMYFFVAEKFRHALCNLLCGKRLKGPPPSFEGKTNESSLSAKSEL

## N#Cc1cc(F)c(NS(=O)(=O)c2c[nH]c3cc(Br)ccc23)cc1F [Compound I-188, 6-bromo-N-(4-cyano-2,5-difluorophenyl)-1H-indole-3-sulfonamide]
GPR17 [1]
  IC50: < 3.16 nM
GPR17 [2]
  Kb: < 3.16 nM

## COc1nc(NS(=O)(=O)c2c[nH]c3c(OC(F)F)c(Cl)ccc23)c(F)cc1F [Compound I-366, 6-chloro-7-(difluoromethoxy)-N-(3,5-difluoro-6-methoxypyridin-2-yl)-1H-indole-3-sulfonamide]
GPR17 [1]
  IC50: 3.16 to 31.6 nM
GPR17 [2]
  Kb: 3.16 to 31.6 nM

## O=S(=O)(Nc1cc(F)c(Cl)cc1F)c1c[nH]c2cc(Cl)c(Br)cc12 [Compound I-248, 5-bromo-6-chloro-N-(4-chloro-2,5-difluorophenyl)-1H-indole-3-sulfonamide]
GPR17 [1]
  IC50: 3.16 to 31.6 nM
GPR17 [2]
  Kb: 3.16 to 31.6 nM

## N#Cc1ccc(NS(=O)(=O)c2c[nH]c3cc(F)ccc23)c(F)c1 [Compound I-113, N-(4-cyano-2-fluorophenyl)-6-fluoro-1H-indole-3-sulfonamide]
GPR17 [1]
  IC50: 3.16 to 31.6 nM
GPR17 [2]
  Kb: > 31.6 nM

## O=S(=O)(Nc1nc(F)c(Cl)cc1F)c1c[nH]c2cc(Cl)ccc12 [Compound I-199, 6-chloro-N-(5-chloro-3,6-difluoropyridin-2-yl)-1H-indole-3-sulfonamide]
GPR17 [1]
  IC50: 3.16 to 31.6 nM
GPR17 [2]
  Kb: < 3.16 nM

## O=C1OCc2cc(F)c(NS(=O)(=O)c3c[nH]c4nc(Cl)ccc34)cc21 [Compound I-284, 6-chloro-N-(6-fluoro-3-oxo-1,3-dihydro-2-benzofuran-5-yl)-1H-pyrrolo[2,3-b]pyridine-3-sulfonamide]
GPR17 [1]
  IC50: 3.16 to 31.6 nM
GPR17 [2]
  Kb: > 31.6 nM

## O=[N+]([O-])c1ccc(NS(=O)(=O)c2c[nH]c3cc(Cl)ccc23)cc1 [Compound I-39, 6-chloro-N-(4-nitrophenyl)-1H-indole-3-sulfonamide]
GPR17 [1]
  IC50: 3.16 to 31.6 nM
GPR17 [2]
  Kb: > 31.6 nM

## O=S(=O)(Nc1cc(F)c(F)cc1F)c1c[nH]c2nc(Cl)ccc12 [Compound I-223, 6-chloro-N-(2,4,5-trifluorophenyl)-1H-pyrrolo[2,3-b]pyridine-3-sulfonamide]
GPR17 [1]
  IC50: 3.16 to 31.6 nM
GPR17 [2]
  Kb: > 31.6 nM

## N#Cc1ccc(NS(=O)(=O)c2c[nH]c3cc(C(F)(F)F)ccc23)c(F)c1 [Compound I-189, N-(4-cyano-2-fluorophenyl)-6-(trifluoromethyl)-1H-indole-3-sulfonamide]
GPR17 [1]
  IC50: < 3.16 nM
GPR17 [2]
  Kb: < 3.16 nM

## N#Cc1ccc(NS(=O)(=O)c2c[nH]c3nc(Cl)ccc23)cc1 [Compound I-178, 6-chloro-N-(4-cyanophenyl)-1H-pyrrolo[2,3-b]pyridine-3-sulfonamide]
GPR17 [1]
  IC50: 3.16 to 31.6 nM
GPR17 [2]
  Kb: 3.16 to 31.6 nM

## CS(=O)(=O)c1ccc2c(S(=O)(=O)Nc3cc(F)c(F)cc3F)c[nH]c2c1 [Compound I-239, 6-methylsulfonyl-N-(2,4,5-trifluorophenyl)-1H-indole-3-sulfonamide]
GPR17 [1]
  IC50: > 31.6 nM
GPR17 [2]
  Kb: > 31.6 nM

## N#CCOc1cc(F)c(NS(=O)(=O)c2csc3cc(Cl)ccc23)cc1F [Compound I-313, 6-chloro-N-[4-(cyanomethoxy)-2,5-difluorophenyl]-1-benzothiophene-3-sulfonamide]
GPR17 [1]
  IC50: 3.16 to 31.6 nM
GPR17 [2]
  Kb: 3.16 to 31.6 nM

## O=S(=O)(Nc1cc(F)c(Cl)cc1F)c1c[nH]c2nc(Cl)ccc12 [Compound I-227, 6-chloro-N-(4-chloro-2,5-difluorophenyl)-1H-pyrrolo[2,3-b]pyridine-3-sulfonamide]
GPR17 [1]
  IC50: < 3.16 nM
GPR17 [2]
  Kb: < 3.16 nM

## O=S(=O)(Nc1cc(F)c(Cl)cc1F)c1c[nH]c2nc(C(F)(F)F)ccc12 [Compound I-247, N-(4-chloro-2,5-difluorophenyl)-6-(trifluoromethyl)-1H-pyrrolo[2,3-b]pyridine-3-sulfonamide]
GPR17 [1]
  IC50: 3.16 to 31.6 nM
GPR17 [2]
  Kb: < 3.16 nM

## O=S(=O)(Nc1ccc(Cl)cc1F)c1c[nH]c2c1ccc1cccnc12 [Compound I-65, N-(4-chloro-2-fluorophenyl)-1H-pyrrolo[3,2-h]quinoline-3-sulfonamide]
GPR17 [1]
  IC50: 3.16 to 31.6 nM
GPR17 [2]
  Kb: 3.16 to 31.6 nM

## COc1cc(CC#N)c(F)nc1NS(=O)(=O)c1c[nH]c2cc(Cl)ccc12 [Compound I-350, 6-chloro-N-[5-(cyanomethyl)-6-fluoro-3-methoxypyridin-2-yl]-1H-indole-3-sulfonamide]
GPR17 [1]
  IC50: < 3.16 nM
GPR17 [2]
  Kb: < 3.16 nM

## O=S(=O)(Nc1cc(F)c(F)cc1F)c1c[nH]c2c1ccc1ccccc12 [Compound I-52, N-(2,4,5-trifluorophenyl)-1H-benzo[g]indole-3-sulfonamide]
GPR17 [1]
  IC50: > 31.6 nM
GPR17 [2]
  Kb: 3.16 to 31.6 nM

## N#CCCc1cc(F)c(NS(=O)(=O)c2c[nH]c3c2ccc2cccnc23)cc1F [Compound I-362, N-[4-(2-cyanoethyl)-2,5-difluorophenyl]-1H-pyrrolo[3,2-h]quinoline-3-sulfonamide]
GPR17 [1]
  IC50: 3.16 to 31.6 nM
GPR17 [2]
  Kb: < 3.16 nM

## Cc1cnc(NS(=O)(=O)c2c[nH]c3cc(Cl)ccc23)c(F)c1 [Compound I-279, 6-chloro-N-(3-fluoro-5-methylpyridin-2-yl)-1H-indole-3-sulfonamide]
GPR17 [1]
  IC50: 3.16 to 31.6 nM
GPR17 [2]
  Kb: 3.16 to 31.6 nM

## N#Cc1ccc(NS(=O)(=O)c2c[nH]c3nc(Br)ccc23)cc1 [Compound I-80, 6-bromo-N-(4-cyanophenyl)-1H-pyrrolo[2,3-b]pyridine-3-sulfonamide]
GPR17 [1]
  IC50: < 3.16 nM
GPR17 [2]
  Kb: 3.16 to 31.6 nM

## CC(=O)c1ccc(NS(=O)(=O)c2c[nH]c3cc(Cl)ccc23)c(F)c1 [Compound I-219, N-(4-acetyl-2-fluorophenyl)-6-chloro-1H-indole-3-sulfonamide]
GPR17 [1]
  IC50: 3.16 to 31.6 nM
GPR17 [2]
  Kb: 3.16 to 31.6 nM

## O=S(=O)(Nc1ccc2nsnc2c1)c1c[nH]c2cc(Cl)ccc12 [Compound I-147, N-(2,1,3-benzothiadiazol-5-yl)-6-chloro-1H-indole-3-sulfonamide]
GPR17 [1]
  IC50: 3.16 to 31.6 nM
GPR17 [2]
  Kb: 3.16 to 31.6 nM

## COc1cc(NS(=O)(=O)c2c[nH]c3cc(Cl)ccc23)ncc1Cl [Compound I-60, 6-chloro-N-(5-chloro-4-methoxypyridin-2-yl)-1H-indole-3-sulfonamide]
GPR17 [1]
  IC50: > 31.6 nM
GPR17 [2]
  Kb: > 31.6 nM

## O=S(=O)(Nc1ccc(I)cc1F)c1c[nH]c2cc(F)ccc12 [Compound I-49, 6-fluoro-N-(2-fluoro-4-iodophenyl)-1H-indole-3-sulfonamide]
GPR17 [1]
  IC50: > 31.6 nM
GPR17 [2]
  Kb: 3.16 to 31.6 nM

## C#Cc1ccc(NS(=O)(=O)c2c[nH]c3nc(OC)ccc23)c(F)c1 [Compound I-283, N-(4-ethynyl-2-fluorophenyl)-6-methoxy-1H-pyrrolo[2,3-b]pyridine-3-sulfonamide]
GPR17 [1]
  IC50: 3.16 to 31.6 nM
GPR17 [2]
  Kb: 3.16 to 31.6 nM

## O=S(=O)(Nc1nc(F)c(Cl)cc1F)c1c[nH]c2c1ccc1cccnc12 [Compound I-316, N-(5-chloro-3,6-difluoropyridin-2-yl)-1H-pyrrolo[3,2-h]quinoline-3-sulfonamide]
GPR17 [1]
  IC50: 3.16 to 31.6 nM
GPR17 [2]
  Kb: 3.16 to 31.6 nM

## O=S(=O)(Nc1ccc(I)cc1F)c1c[nH]c2cc3c(cc12)OCO3 [Compound I-44, N-(2-fluoro-4-iodophenyl)-5H-[1,3]dioxolo[4,5-f]indole-7-sulfonamide]
GPR17 [1]
  IC50: > 31.6 nM
GPR17 [2]
  Kb: 3.16 to 31.6 nM

## O=S(=O)(Nc1cc(F)c(F)cc1F)c1c[nH]c2nc(Br)ccc12 [Compound I-95, 6-bromo-N-(2,4,5-trifluorophenyl)-1H-pyrrolo[2,3-b]pyridine-3-sulfonamide]
GPR17 [1]
  IC50: 3.16 to 31.6 nM
GPR17 [2]
  Kb: 3.16 to 31.6 nM

## O=S(=O)(Nc1cc(F)c(Br)cc1F)c1coc2cc(Cl)ccc12 [Compound I-259, N-(4-bromo-2,5-difluorophenyl)-6-chloro-1-benzofuran-3-sulfonamide]
GPR17 [1]
  IC50: 3.16 to 31.6 nM
GPR17 [2]
  Kb: < 3.16 nM

From patent US12071404B2, “Aza (indole)-, benzothiophene-, and benzofuran-3-sulfonamides” (UCB Pharma GmbH, priority 2016, dated 2024)
